Results as given in ChEMBL document CHEMBL1629662, “Antimicrobial activity of prulifloxacin tested against a worldwide collection of gastroenteritis-producing pathogens, including those causing traveler's diarrhea” (2009).
≈ marks a conversion by molar mass, not a printed value.

Assays:
[1] = tested on: Yersinia sp.; test: Antibacterial activity against Yersinia sp. assessed as growth inhibition at 0.016 ug/ml by broth microdilution method; type: functional; details: Yersinia sp. (in: enterobacteria)
[2] = tested on: Escherichia coli; test: Antibacterial activity against enteroaggregative Escherichia coli assessed as percent susceptible isolates by broth microdilution method; type: functional
[3] = tested on: Vibrio vulnificus; test: Antibacterial activity against Vibrio vulnificus assessed as percent susceptible isolates by broth microdilution method; type: functional
[4] = tested on: Escherichia coli; test: Antibacterial activity against Escherichia coli assessed as growth inhibition at 0.004 ug/ml by broth microdilution method; type: functional
[5] = tested on: Shigella dysenteriae; test: Antibacterial activity against Shigella dysenteriae assessed as percent susceptible isolates by broth microdilution method; type: functional
[6] = tested on: Escherichia coli; test: Antibacterial activity against enterotoxigenic Escherichia coli assessed as percent resistant isolates by broth microdilution method; type: functional
[7] = tested on: Campylobacter sp.; test: Antibacterial activity against Campylobacter sp. assessed as growth inhibition at 0.06 ug/ml by broth microdilution method; type: functional
[8] = tested on: Escherichia coli; test: Antibacterial activity against enteroaggregative Escherichia coli assessed as percent resistant isolates by broth microdilution method; type: functional
[9] = tested on: Shigella sp.; test: Antibacterial activity against Shigella sp. assessed as growth inhibition at 0.06 ug/ml by broth microdilution method; type: functional
[10] = tested on: Vibrio sp.; test: Antibacterial activity against Vibrio sp. assessed as percent susceptible isolates by broth microdilution method; type: functional
[11] = tested on: Yersinia enterocolitica; test: Antibacterial activity against Yersinia enterocolitica assessed as percent resistant isolates by broth microdilution method; type: functional
[12] = tested on: Escherichia coli; test: Antibacterial activity against enteroaggregative Escherichia coli by broth microdilution method; type: functional
[13] = tested on: Escherichia coli; test: Antibacterial activity against enteropathogenic Escherichia coli assessed as percent susceptible isolates by broth microdilution method; type: functional
[14] = tested on: Escherichia coli; test: Antibacterial activity against blood-borne Escherichia coli assessed as percent susceptible isolates by broth microdilution method; type: functional
[15] = tested on: Yersinia sp.; test: Antibacterial activity against Yersinia sp. assessed as growth inhibition at 0.03 ug/ml by broth microdilution method; type: functional; details: Yersinia sp. (in: enterobacteria)
[16] = tested on: Aeromonas sp.; test: Antibacterial activity against Aeromonas sp. assessed as growth inhibition at 0.5 ug/ml by broth microdilution method; type: functional
[17] = tested on: Vibrio alginolyticus; test: Antibacterial activity against Vibrio alginolyticus assessed as percent resistant isolates by broth microdilution method; type: functional
[18] = Antibacterial activity against Salmonella enterica serovar Choleraesuis assessed as percent susceptible isolates by broth microdilution method; type: functional, Salmonella enterica subsp. enterica serovar Choleraesuis
[19] = tested on: Campylobacter sp.; test: Antibacterial activity against Campylobacter sp. assessed as growth inhibition at 0.5 ug/ml by broth microdilution method; type: functional
[20] = tested on: Escherichia coli; test: Antibacterial activity against Escherichia coli assessed as growth inhibition at 0.25 ug/ml by broth microdilution method; type: functional
[21] = tested on: Shigella dysenteriae; test: Antibacterial activity against Shigella dysenteriae by broth microdilution method; type: functional
[22] = tested on: Aeromonas sp.; test: Antibacterial activity against Aeromonas sp. assessed as growth inhibition at 0.06 ug/ml by broth microdilution method; type: functional
[23] = tested on: Escherichia coli; test: Antibacterial activity against blood-borne Escherichia coli assessed as percent resistant isolates by broth microdilution method; type: functional
[24] = tested on: Escherichia coli; test: Antibacterial activity against Escherichia coli assessed as growth inhibition at 1 ug/ml by broth microdilution method; type: functional
[25] = tested on: Salmonella sp.; test: Antibacterial activity against Salmonella sp. assessed as growth inhibition at =<0.002 ug/ml by broth microdilution method; type: functional
[26] = tested on: Aeromonas hydrophila; test: Antibacterial activity against Aeromonas hydrophila assessed as percent susceptible isolates by broth microdilution method; type: functional
[27] = tested on: Vibrio fluvialis; test: Antibacterial activity against Vibrio fluvialis assessed as percent resistant isolates by broth microdilution method; type: functional
[28] = tested on: Escherichia coli; test: Antibacterial activity against Escherichia coli assessed as growth inhibition at =>4 ug/ml by broth microdilution method; type: functional
[29] = tested on: Escherichia coli; test: Antibacterial activity against Escherichia coli assessed as growth inhibition at 0.5 ug/ml by broth microdilution method; type: functional
[30] = tested on: Escherichia coli; test: Antibacterial activity against Escherichia coli assessed as percent resistant isolates by broth microdilution method; type: functional
[31] = tested on: Campylobacter sp.; test: Antibacterial activity against Campylobacter sp. assessed as growth inhibition at 0.03 ug/ml by broth microdilution method; type: functional
[32] = tested on: Aeromonas sobria; test: Antibacterial activity against Aeromonas sobria assessed as percent susceptible isolates by broth microdilution method; type: functional
[33] = tested on: Vibrio fluvialis; test: Antibacterial activity against Vibrio fluvialis assessed as percent susceptible isolates by broth microdilution method; type: functional
[34] = tested on: Escherichia coli; test: microbe, parasite or virus in culture; type: functional
[35] = tested on: Vibrio sp.; test: Antibacterial activity against Vibrio sp. by broth microdilution method; type: functional
[36] = Antibacterial activity against Salmonella enterica serovar Newport by broth microdilution method; type: functional, Salmonella enterica subsp. enterica serovar Newport
[37] = tested on: Vibrio parahaemolyticus; test: Antibacterial activity against Vibrio parahaemolyticus assessed as percent resistant isolates by broth microdilution method; type: functional
[38] = tested on: Vibrio alginolyticus; test: Antibacterial activity against Vibrio alginolyticus by broth microdilution method; type: functional
[39] = tested on: Aeromonas sp.; test: Antibacterial activity against Aeromonas sp. assessed as growth inhibition at 0.008 ug/ml by broth microdilution method; type: functional
[40] = tested on: Escherichia coli; test: Antibacterial activity against blood-borne Escherichia coli by broth microdilution method; type: functional
[41] = tested on: Aeromonas caviae; test: Antibacterial activity against Aeromonas caviae assessed as percent susceptible isolates by broth microdilution method; type: functional
[42] = tested on: Shigella sp.; test: Antibacterial activity against Shigella sp. assessed as growth inhibition at 0.008 ug/ml by broth microdilution method; type: functional
[43] = tested on: Vibrio sp.; test: Antibacterial activity against Vibrio sp. assessed as growth inhibition at 0.03 ug/ml by broth microdilution method; type: functional
[44] = tested on: Salmonella sp.; test: Antibacterial activity against Salmonella sp. assessed as growth inhibition at 0.008 ug/ml by broth microdilution method; type: functional
[45] = tested on: Yersinia enterocolitica; test: Antibacterial activity against Yersinia enterocolitica by broth microdilution method; type: functional
[46] = tested on: Aeromonas hydrophila; test: Antibacterial activity against Aeromonas hydrophila by broth microdilution method; type: functional
[47] = tested on: Aeromonas sp.; test: Antibacterial activity against Aeromonas sp. assessed as growth inhibition at 1 ug/ml by broth microdilution method; type: functional
[48] = tested on: Campylobacter sp.; test: Antibacterial activity against Campylobacter sp. assessed as growth inhibition at 0.008 ug/ml by broth microdilution method; type: functional
[49] = tested on: Campylobacter sp.; test: Antibacterial activity against Campylobacter sp. assessed as growth inhibition at 0.12 ug/ml by broth microdilution method; type: functional
[50] = tested on: Campylobacter jejuni; test: Antibacterial activity against Campylobacter jejuni assessed as percent susceptible isolates by broth microdilution method; type: functional; details: pooled result: one value given for 2 cell lines, strains, targets or settings
[51] = tested on: Shigella boydii; test: Antibacterial activity against Shigella boydii assessed as percent susceptible isolates by broth microdilution method; type: functional; details: pooled result: one value given for 3 cell lines, strains, targets or settings
[52] = Escherichia coli, read-out: MIC50
[53] = Escherichia coli, read-out: MIC90

CC1Sc2c(C(=O)O)c(=O)c3cc(F)c(N4CCNCC4)cc3n21 (centres undefined) [ULIFLOXACIN]
inhibition at 0.016 µg/mL [1]: 93%
Activity [2]: 100%
Activity [3]: 100%
inhibition at 0.004 µg/mL [4]: 27%
Activity [5]: 100%
Activity [6]: 0%
inhibition at 0.06 µg/mL [7]: 77%
Activity [8]: 0%
inhibition at 0.06 µg/mL [9]: 99%
Activity [10]: 100%
Activity [11]: 0%
MIC [12]: 4 ng/mL (≈ 0.0114 µM)
MIC50 [12]: 4 ng/mL (≈ 0.0114 µM)
MIC90 [12]: 8 ng/mL (≈ 0.0229 µM)
MIC ([12]; Escherichia coli, read-out: MIC): 4 ng/mL (≈ 0.0114 µM)
MIC50 [12, 52]: 4 ng/mL (≈ 0.0114 µM)
MIC90 [12, 53]: 8 ng/mL (≈ 0.0229 µM)
Activity [13]: 100%
Activity [14]: 90%
inhibition at 0.03 µg/mL [15]: 93%
inhibition at 0.5 µg/mL [16]: 98%
Activity [17]: 0%
Activity [18]: 100%
inhibition at 0.5 µg/mL [19]: 83%
inhibition at 0.25 µg/mL [20]: 97%
MIC50 [21]: 4 ng/mL (≈ 0.0114 µM)
MIC90 [21]: 8 ng/mL (≈ 0.0229 µM)
inhibition at 0.06 µg/mL [22]: 92%
Activity [23]: 10%
inhibition at 1 µg/mL [24]: 97%
inhibition (INH) [25]: 1%
Activity [26]: 98%
Activity [27]: 0%
inhibition (INH) [28]: 100%
inhibition at 0.5 µg/mL [29]: 97%
Activity [30]: 3%
inhibition at 0.03 µg/mL [31]: 61%
Activity [32]: 98%
Activity [33]: 100%
MIC50 [34]: 8 ng/mL (≈ 0.0229 µM)
MIC90 [34]: 8 ng/mL (≈ 0.0229 µM)
MIC50 [34, 52]: 8 ng/mL (≈ 0.0229 µM)
MIC90 [34, 53]: 8 ng/mL (≈ 0.0229 µM)
MIC50 [35]: 16 ng/mL (≈ 0.0458 µM)
MIC90 [35]: 30 ng/mL (≈ 0.0859 µM)
MIC50 [36]: 8 ng/mL (≈ 0.0229 µM)
MIC90 [36]: 30 ng/mL (≈ 0.0859 µM)
Activity [37]: 0%
MIC50 [38]: 16 ng/mL (≈ 0.0458 µM)
MIC90 [38]: 30 ng/mL (≈ 0.0859 µM)
inhibition at 0.008 µg/mL [39]: 68%
MIC50 [40]: 8 ng/mL (≈ 0.0229 µM)
MIC90 [40]: 60 ng/mL (≈ 0.172 µM)
MIC50 [40, 52]: 8 ng/mL (≈ 0.0229 µM)
MIC90 [40, 53]: 60 ng/mL (≈ 0.172 µM)
Activity [41]: 98%
inhibition at 0.008 µg/mL [42]: 95%
inhibition at 0.03 µg/mL [43]: 100%
inhibition at 0.008 µg/mL [44]: 65%
MIC [45]: 8 ng/mL (≈ 0.0229 µM)
MIC50 [45]: 8 ng/mL (≈ 0.0229 µM)
MIC90 [45]: 16 ng/mL (≈ 0.0458 µM)
MIC50 [46]: 4 ng/mL (≈ 0.0114 µM)
MIC90 [46]: 60 ng/mL (≈ 0.172 µM)
inhibition at 1 µg/mL [47]: 98%
inhibition at 0.008 µg/mL [48]: 2%
inhibition at 0.12 µg/mL [49]: 82%
Activity [50]: 84.4%
Activity [51]: 100%
